Assay results from paper PMC10053710, “Influence of Lipidation Pattern of the KR12 Fragment of Peptide LL-37 on Its Antibacterial and Hemolytic Activities” (International Journal of Molecular Sciences, 2023).
≈ marks a conversion by molar mass, not a printed value. Like-named read-outs stand apart in the source and are kept apart here. Where a SMILES comes first, the peptide text is derived from it. The star is where a group is joined. Deoxycholoyl = C[C@H](CCC(=O)*)[C@H]1CC[C@H]2[C@@H]3CC[C@@H]4C[C@H](O)CC[C@]4(C)[C@H]3C[C@H](O)[C@]12C; Benzoyl(4-Ph) = O=C(c1ccc(-c2ccccc2)cc1)*; Butanoyl(4-Ph) = O=C(CCCc1ccccc1)*; Hydrocinnamoyl = O=C(CCc1ccccc1)*; X4 = O=C(/C=C/c1ccccc1)*; PhAc = O=C(Cc1ccccc1)*; X2 = O=C(C#Cc1ccccc1)*; Bz = O=C(c1ccccc1)*

Experiments:
[1] = tested on: Enterococcus faecium ATCC 700221; type: cell-based
Experimental: (§1) Tests of the antibacterial activity were carried out as we just described. Briefly, for assays, the following strains of ESKAPE bacteria were chosen: Acinetobacter baumannii ATCC BAA-1605, Enterococcus faecium ATCC 700221, Klebsiella aerogenes ATCC 13048 (formerly Enterobacter aerogenes), Klebsiella pneumoniae ATCC 700603, and Pseudomonas aeruginosa ATCC 9027. Moreover, the reference strains of Staphylococcus aureus were used: S. aureus ATCC 25923, S. aureus ATCC 6538, S. aureus ATCC 33591 (MRSA), S. aureus ATCC 9144, and S. aureus ATCC 12598. Before experiments, all the strains were stored at −80 °C in Roti®-Store cryo vials (Carl Roth GmbH, Karlsruhe, Germany). To evaluate the activity of the compounds, bacteria were transferred into fresh Mueller–Hinton medium (Becton Dickinson, Warszawa, Poland) and incubated for 24 h at 37 °C. In the next step, bacterial inoculums were seeded on Mueller–Hinton agar plates (BioMaxima SA, Lublin, Poland) and incubated again for 24 h. The MIC values were determined using the broth microdilution method according to the Clinical and Laboratory Standards Institute Protocol. The initial inoculums of bacteria (0.5 × 10^5 colony forming units (CFU)/mL) prepared in Mueller–Hinton broth were exposed to the ranging concentrations of peptides (1–512 µg/mL). The experiments were conducted on 96-well microtiter plates, with a final volume of 100 µL. The inoculum densities were checked spectrophotometrically (Multiskan™ GO Microplate Spectrophotometer, Thermo Scientific, Waltham, MA, USA) at 600 nm. The results were read after incubation for 18 h at 37 °C. The MIC values were the lowest concentration at which a visible growth of microorganisms was inhibited. All experiments were conducted in triplicate. Moreover, positive (growth) and negative (sterility) controls were included.

[2] = tested on: Klebsiella pneumoniae ATCC 700603; type: cell-based
Experimental: as §1

[3] = tested on: Klebsiella aerogenes ATCC 13048; type: cell-based
Experimental: as §1

[4] = tested on: Pseudomonas aeruginosa ATCC 9027; type: cell-based
Experimental: as §1

[5] = tested on: S. aureus ATCC 33591 (MRSA); type: cell-based, Staphylococcus aureus
Experimental: as §1

[6] = tested on: S. aureus ATCC 25923; type: cell-based, Staphylococcus aureus
Experimental: as §1

[7] = tested on: S. aureus ATCC 9144; type: cell-based, Staphylococcus aureus
Experimental: as §1

[8] = tested on: S. aureus ATCC 6538; type: cell-based, Staphylococcus aureus
Experimental: as §1

[9] = tested on: S. aureus ATCC 12598; type: cell-based, Staphylococcus aureus
Experimental: as §1

[10] = tested on: human red blood cells (hRBCs); assay: Hemolysis assay; settings: 4% (v/v) erythrocytes in PBS, peptides 1–512 µg/mL, 1 h at 37 °C, hemoglobin at 540 nm
Experimental: To facilitate a comparison of hemolytic activity between the analogs, MHC5 values were determined. MHC5 is the minimum hemolytic concentration of the compounds that caused the 5% hemolysis of hRBCs.
Briefly, the fresh hRBCs with EDTA as anticoagulant were rinsed three times with PBS through centrifugation at 800× g for 10 min and resuspended in PBS. The serial dilution of peptides (1–512 µg/mL) was prepared in PBS on 96-well plates. Then, the stock RBCs solution was added to the plates to reach a final volume of 100 µL with a 4% concentration of erythrocytes (v/v). The control wells for 0 (RBCs in PBS) and 100% (RBCs in 1% Triton-X 100) hemolysis were also prepared. Then, the plates were incubated for 1 h at 37 °C and centrifuged at 800× g for 10 min at 4 °C (Sorvall ST 16R Centrifuge, Thermo Scientific, Waltham, MA, USA). After centrifugation, the supernatant was carefully transferred to new microtiter plates and the release of hemoglobin was measured at 540 nm (Multiskan™ GO Microplate Spectrophotometer, Thermo Scientific, Waltham, MA, USA). The percentage of hemolysis was calculated based on wells with 100% hemolysis.

[11] = fresh batch of blood (footnote a)
[12] = Mueller–Hinton broth, 0.5 × 10^5 CFU/mL, peptides 1–512 µg/mL, 18 h at 37 °C, triplicate
[13] = MRSA, Mueller–Hinton broth, 0.5 × 10^5 CFU/mL, peptides 1–512 µg/mL, 18 h at 37 °C, triplicate
[14] = 100% = 1% Triton-X 100, ≥ means less than 5% hemolysis up to 512 µg/mL

Row | Compound | MIC E. faecium ([1]; ATCC 700221, 18 h) [µg/mL] | MIC K. pneumoniae ([2]; ATCC 700603, 18 h) [µg/mL] | MIC K. aerogenes ([3]; ATCC 13048, 18 h) [µg/mL] | MIC P. aeruginosa ([4]; ATCC 9027, 18 h) [µg/mL] | MIC S. aureus 33591 ([5]; ATCC 33591, 18 h) [µg/mL] | MIC S. aureus 25923 ([6]; ATCC 25923, 18 h) [µg/mL] | MIC S. aureus 9144 ([7]; ATCC 9144, 18 h) [µg/mL] | MIC S. aureus 6538 ([8]; ATCC 6538, 18 h) [µg/mL] | MIC S. aureus 12598 ([9]; ATCC 12598, 18 h) [µg/mL] | MIC A. baumannii (18 h) [µg/mL] | MHC5 (minimum hemolytic concentration causing 5% hemolysis of hRBCs) [10, 11] | MIC A. baumannii [12] [µg/mL] | MHC5 (minimum hemolytic concentration causing 5% hemolysis of hRBCs) [10, 14] [µg/mL] | also measured
1 | CC[C@H](C)[C@H](NC(=O)[C@H](CCCNC(=N)N)NC(=O)[C@H](CCC(N)=O)NC(=O)[C@@H](NC(=O)[C@@H](NC(=O)[C@H](CCCNC(=N)N)NC(=O)[C@H](CCCCN)NC(=O)/C=C/c1ccccc1)[C@@H](C)CC)C(C)C)C(=O)N[C@@H](CCCCN)C(=O)N[C@@H](CC(=O)O)C(=O)N[C@@H](Cc1ccccc1)C(=O)N[C@@H](CC(C)C)C(=O)N[C@@H](CCCNC(=N)N)C(N)=O [XIX, trans-cinnamic acid-KR12-NH2] (X4-KRIVQRIKDFLR-NH2) | 4 (≈ 2.35 µM) | 16 (≈ 9.41 µM) | 16 (≈ 9.41 µM) | 32 (≈ 18.8 µM) | 8 (≈ 4.7 µM) | 16 (≈ 9.41 µM) | 4 (≈ 2.35 µM) | 16 (≈ 9.41 µM) | 16 (≈ 9.41 µM) | 8 (≈ 4.7 µM) | 128 ^a µg/mL | – | – | –
2 | CC[C@H](C)[C@H](NC(=O)[C@H](CCCNC(=N)N)NC(=O)[C@H](CCC(N)=O)NC(=O)[C@@H](NC(=O)[C@@H](NC(=O)[C@H](CCCNC(=N)N)NC(=O)[C@H](CCCCN)NC(=O)c1ccccc1)[C@@H](C)CC)C(C)C)C(=O)N[C@@H](CCCCN)C(=O)N[C@@H](CC(=O)O)C(=O)N[C@@H](Cc1ccccc1)C(=O)N[C@@H](CC(C)C)C(=O)N[C@@H](CCCNC(=N)N)C(N)=O [XV, Benzoic acid-KR12-NH2] (Bz-KRIVQRIKDFLR-NH2) | – | – | – | – | – | – | – | – | – | – | – | 32 (≈ 19.1 µM) | ≥512 | MIC E. faecium [1, 12]: 8 µg/mL (≈ 4.78 µM); MIC K. pneumoniae [2, 12]: 64 µg/mL (≈ 38.2 µM); MIC K. aerogenes [3, 12]: 64 µg/mL (≈ 38.2 µM); MIC P. aeruginosa [4, 12]: 128 µg/mL (≈ 76.4 µM); MIC S. aureus 33591 [5, 13]: 64 µg/mL (≈ 38.2 µM); MIC S. aureus 25923 [6, 12]: 64 µg/mL (≈ 38.2 µM); MIC S. aureus 9144 [7, 12]: 32 µg/mL (≈ 19.1 µM); MIC S. aureus 6538 [8, 12]: 8 µg/mL (≈ 4.78 µM); MIC S. aureus 12598 [9, 12]: 32 µg/mL (≈ 19.1 µM)
3 | CC[C@H](C)[C@H](NC(=O)[C@H](CCCNC(=N)N)NC(=O)[C@H](CCC(N)=O)NC(=O)[C@@H](NC(=O)[C@@H](NC(=O)[C@H](CCCNC(=N)N)NC(=O)[C@H](CCCCN)NC(=O)Cc1ccccc1)[C@@H](C)CC)C(C)C)C(=O)N[C@@H](CCCCN)C(=O)N[C@@H](CC(=O)O)C(=O)N[C@@H](Cc1ccccc1)C(=O)N[C@@H](CC(C)C)C(=O)N[C@@H](CCCNC(=N)N)C(N)=O [XVI, Phenylacetic acid-KR12-NH2] (PhAc-KRIVQRIKDFLR-NH2) | – | – | – | – | – | – | – | – | – | – | – | 32 (≈ 18.9 µM) | 256 | MIC E. faecium [1, 12]: 8 µg/mL (≈ 4.74 µM); MIC K. pneumoniae [2, 12]: 64 µg/mL (≈ 37.9 µM); MIC K. aerogenes [3, 12]: 64 µg/mL (≈ 37.9 µM); MIC P. aeruginosa [4, 12]: 128 µg/mL (≈ 75.8 µM); MIC S. aureus 33591 [5, 13]: 64 µg/mL (≈ 37.9 µM); MIC S. aureus 25923 [6, 12]: 128 µg/mL (≈ 75.8 µM); MIC S. aureus 9144 [7, 12]: 32 µg/mL (≈ 18.9 µM); MIC S. aureus 6538 [8, 12]: 16 µg/mL (≈ 9.47 µM); MIC S. aureus 12598 [9, 12]: 32 µg/mL (≈ 18.9 µM)
4 | CC[C@H](C)[C@H](NC(=O)[C@H](CCCNC(=N)N)NC(=O)[C@H](CCC(N)=O)NC(=O)[C@@H](NC(=O)[C@@H](NC(=O)[C@H](CCCNC(=N)N)NC(=O)[C@H](CCCCN)NC(=O)CCc1ccccc1)[C@@H](C)CC)C(C)C)C(=O)N[C@@H](CCCCN)C(=O)N[C@@H](CC(=O)O)C(=O)N[C@@H](Cc1ccccc1)C(=O)N[C@@H](CC(C)C)C(=O)N[C@@H](CCCNC(=N)N)C(N)=O [XVII, 3-Phenylpropionic acid-KR12-NH2] (Hydrocinnamoyl-KRIVQRIKDFLR-NH2) | 4 (≈ 2.35 µM) | 32 (≈ 18.8 µM) | 64 (≈ 37.6 µM) | 64 (≈ 37.6 µM) | 32 (≈ 18.8 µM) | 16 (≈ 9.39 µM) | 16 (≈ 9.39 µM) | 8 (≈ 4.7 µM) | 16 (≈ 9.39 µM) | 32 (≈ 18.8 µM) | – | – | 256 | –
5 | CC[C@H](C)[C@H](NC(=O)[C@H](CCCNC(=N)N)NC(=O)[C@H](CCC(N)=O)NC(=O)[C@@H](NC(=O)[C@@H](NC(=O)[C@H](CCCNC(=N)N)NC(=O)[C@H](CCCCN)NC(=O)CCCc1ccccc1)[C@@H](C)CC)C(C)C)C(=O)N[C@@H](CCCCN)C(=O)N[C@@H](CC(=O)O)C(=O)N[C@@H](Cc1ccccc1)C(=O)N[C@@H](CC(C)C)C(=O)N[C@@H](CCCNC(=N)N)C(N)=O [XVIII, 4-Phenylbutanoic acid-KR12-NH2] ({Butanoyl(4-Ph)}-KRIVQRIKDFLR-NH2) | 8 (≈ 4.66 µM) | 16 (≈ 9.32 µM) | 32 (≈ 18.6 µM) | 64 (≈ 37.3 µM) | 16 (≈ 9.32 µM) | 32 (≈ 18.6 µM) | 8 (≈ 4.66 µM) | 32 (≈ 18.6 µM) | 32 (≈ 18.6 µM) | 4 (≈ 2.33 µM) | 128 ^a µg/mL | – | – | –
6 | CC[C@H](C)[C@H](NC(=O)[C@H](CCCNC(=N)N)NC(=O)[C@H](CCC(N)=O)NC(=O)[C@@H](NC(=O)[C@@H](NC(=O)[C@H](CCCNC(=N)N)NC(=O)[C@H](CCCCN)NC(=O)C#Cc1ccccc1)[C@@H](C)CC)C(C)C)C(=O)N[C@@H](CCCCN)C(=O)N[C@@H](CC(=O)O)C(=O)N[C@@H](Cc1ccccc1)C(=O)N[C@@H](CC(C)C)C(=O)N[C@@H](CCCNC(=N)N)C(N)=O [XX, Phenylpropiolic acid-KR12-NH2] (X2-KRIVQRIKDFLR-NH2) | 4 (≈ 2.35 µM) | 32 (≈ 18.8 µM) | 16 (≈ 9.42 µM) | 64 (≈ 37.7 µM) | 32 (≈ 18.8 µM) | 128 (≈ 75.3 µM) | 16 (≈ 9.42 µM) | 8 (≈ 4.71 µM) | 32 (≈ 18.8 µM) | 32 (≈ 18.8 µM) | – | – | 256 | –
7 | CC[C@H](C)[C@H](NC(=O)[C@H](CCCNC(=N)N)NC(=O)[C@H](CCC(N)=O)NC(=O)[C@@H](NC(=O)[C@@H](NC(=O)[C@H](CCCNC(=N)N)NC(=O)[C@H](CCCCN)NC(=O)c1ccc(-c2ccccc2)cc1)[C@@H](C)CC)C(C)C)C(=O)N[C@@H](CCCCN)C(=O)N[C@@H](CC(=O)O)C(=O)N[C@@H](Cc1ccccc1)C(=O)N[C@@H](CC(C)C)C(=O)N[C@@H](CCCNC(=N)N)C(N)=O [XXI, 4-Phenylbenzoic acid-KR12-NH2] ({Benzoyl(4-Ph)}-KRIVQRIKDFLR-NH2) | 2 (≈ 1.14 µM) | 8 (≈ 4.57 µM) | 4 (≈ 2.28 µM) | 16 (≈ 9.14 µM) | 4 (≈ 2.28 µM) | 8 (≈ 4.57 µM) | 4 (≈ 2.28 µM) | 2 (≈ 1.14 µM) | 4 (≈ 2.28 µM) | 8 (≈ 4.57 µM) | – | – | 32 | –
8 | CC[C@H](C)[C@H](NC(=O)[C@H](CCCNC(=N)N)NC(=O)[C@H](CCC(N)=O)NC(=O)[C@@H](NC(=O)[C@@H](NC(=O)[C@H](CCCNC(=N)N)NC(=O)[C@H](CCCCN)NC(=O)CC[C@@H](C)[C@H]1CC[C@H]2[C@@H]3CC[C@@H]4C[C@H](O)CC[C@]4(C)[C@H]3C[C@H](O)[C@]12C)[C@@H](C)CC)C(C)C)C(=O)N[C@@H](CCCCN)C(=O)N[C@@H](CC(=O)O)C(=O)N[C@@H](Cc1ccccc1)C(=O)N[C@@H](CC(C)C)C(=O)N[C@@H](CCCNC(=N)N)C(N)=O [XXII, Deoxycholic acid-KR12-NH2] (Deoxycholoyl-KRIVQRIKDFLR-NH2) | 2 (≈ 1.03 µM) | 64 (≈ 32.9 µM) | 128 (≈ 65.8 µM) | 128 (≈ 65.8 µM) | 256 (≈ 132 µM) | 32 (≈ 16.4 µM) | 8 (≈ 4.11 µM) | 4 (≈ 2.06 µM) | 8 (≈ 4.11 µM) | – | 8 µg/mL | 8 (≈ 4.11 µM) | – | –
